Assay results from PubChem BioAssay AID2743 (NMMLSC, 2010).
“And” between values parts separate entries of the source, which are not always exact repeats. Identical values can stand only once. The source made the active and inactive calls.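 Rule for the calls: active = fitted half-maximal concentration for change in GFP expression of 33 µM or less; inactive = the rest.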

Assay: concentration-dependent AGP1-GFP change, TOR pathway – cell-based, flow cytometry, S. cerevisiae, MLPCN hits, dose response (AID 2743)
Settings: S. cerevisiae AGP1-GFP strain, flow cytometry GFP, 3 h; at 33 µM (top of the series)

Row | Compound | GFP fluorescence (kMESF)
1 | N#Cc1ccc(N=c2ssnc2Cl)cc1 | 33.2 kMESF (inactive)
2 | O=C1NC(=O)N(Cc2ccco2)C(=O)/C1=C/c1ccc(-c2cccc([N+](=O)[O-])c2)o1 | 34.8 kMESF (inactive)
3 | Cc1ccc(/C=C2\SC(=S)N(Cc3ccccc3)C2=O)o1 | 38.4 kMESF (inactive)
4 | CC(OC(=O)c1ccco1)C(=O)Nc1nc(-c2ccccc2)cs1 (centres undefined) | 40.9 kMESF (inactive)
5 | C#CCOCCOCCOCCNc1nc(N2CCN(C(=O)CCCCCCCCCCNC(=O)[C@H](CCCCN)n3cc(CCO)nn3)CC2)nc(N2CCN(C(=O)CCCCCCCCCCNC(=O)[C@H](CCCN=C(N)N)n3cc(C[C@@H](C)CC)nn3)CC2)n1 | 45.1 kMESF (inactive)
6 | O=C(Oc1ccnc2cc(Cl)ccc12)N1CCOCC1 | 35.7 kMESF (inactive)
7 | O=S(=O)(c1ccccc1)c1ccc(C(F)(F)F)cn1 | 43.8 kMESF (inactive)
8 | O=[N+]([O-])c1ccc(-c2cn3nc(-c4ccccc4)c(-c4ccccc4)nc3n2)cc1 | 39.6 kMESF (inactive)
9 | Oc1c(CN2CCN(c3ccccc3)CC2)cc(Br)c2cccnc12 | 39 kMESF (inactive)
10 | COc1cc(N=c2ssnc2Cl)c(OC)cc1Cl | 27.6 kMESF (inactive) and 26.1 kMESF (inactive)
11 | O=C(/C=C/c1ccnc2ccccc12)c1cccs1 | 45.9 kMESF (inactive)
12 | COc1ccc(C2(C)ON(c3ccccc3C(F)(F)F)C2=O)cc1 (centres undefined) | 36.5 kMESF (inactive)
13 | O=C1/C(=C\c2ccc(O)c(O)c2)SC(=S)N1Cc1ccccc1 | 10.8 kMESF (inactive)
14 | Cc1ccc(NC(=O)c2nc(S(=O)(=O)Cc3ccccc3)ncc2Cl)cc1 | 45.8 kMESF (inactive)
15 | Cc1cc(=O)n2c3c(sc2n1)C(=O)N(Cc1ccccc1)C3=O | 44.3 kMESF (inactive)
16 | N/C(Cc1ccc(Cl)cc1Cl)=N\OC(=O)c1cccs1 | 27.9 kMESF (inactive)
17 | CCOc1ccc(N2C(=O)/C(=C\c3cccs3)C(=O)NC2=S)cc1 | 27.9 kMESF (inactive)
18 | COc1cc(/C=C2\C(=O)ON=C2c2ccccc2)cc(OC)c1OC | 32.3 kMESF (inactive)
19 | Oc1ccc2ccccc2c1/C=N/Nc1nnc(-c2ncc[nH]2)c2ccccc12 | 21.8 kMESF (inactive)
20 | Oc1c(Br)cc(Br)cc1C=Nc1ccc2c(c1)OCO2 | 42.9 kMESF (inactive)
21 | Cc1ccc(/C=C2\C(=O)NC(=S)N(c3ccccc3F)C2=O)s1 | 26.9 kMESF (inactive)
22 | O=C1c2ccccc2C(=O)N1OS(=O)(=O)c1ccccc1 | 29.6 kMESF (inactive)

Row | Compound | GFP fluorescence (kMESF)
23 | Cc1ccc2nc(Cl)c3nnnn3c2c1 | 33.8 kMESF (inactive)
24 | O=C(c1ccc(C(=O)N2CCCc3ccccc32)s1)N1CCCc2ccccc21 | 38.6 kMESF (inactive)
25 | O=[N+]([O-])c1ccc(S(=O)(=O)c2cccc(C(F)(F)F)c2)nc1 | 37.7 kMESF (inactive)
26 | CCN1C(=O)/C(=C\C(=O)c2cccs2)c2cc(Br)ccc21 | 45.3 kMESF (inactive)
27 | O=C(c1ccccc1)c1ccccc1N1C(=O)C=CC1=O | 38 kMESF (inactive)
28 | Cc1c(C)c2ccc(Oc3ccc([N+](=O)[O-])cc3C(F)(F)F)c(C)c2oc1=O | 33.9 kMESF (inactive)
29 | CC(=O)Oc1oc(-c2ccccc2)nc1C=Nc1ccc(N(C)C)cc1 | 43.2 kMESF (inactive)
30 | O=C(OCn1ncc(Br)c(Br)c1=O)c1c(F)cccc1F | 42.7 kMESF (inactive)
31 | Oc1c(C(Nc2nc3ccccc3s2)c2ccco2)ccc2cccnc12 (centres undefined) | 39.7 kMESF (inactive)
32 | Clc1cccc(CN2COc3c(cc(Cl)c4cccnc34)C2)c1 | 35.6 kMESF (inactive)
33 | Cc1nn(C)c(C)c1N1C(=O)c2cccc3c(Br)ccc(c23)C1=O | 40.8 kMESF (inactive)
34 | Cc1ccc(N=c2ssnc2Cl)cc1 | 43.2 kMESF (inactive)
35 | COc1ccc(C(=O)/C=C2/C(=O)Nc3ccccc32)cc1 | 44.8 kMESF (inactive)
36 | O=C(COc1ccccc1)NNC(=S)NC(=O)c1ccccc1 | 42.7 kMESF (inactive)
37 | O=C(Nc1ccc(Cl)cc1Cl)c1cccc(N2C(=O)C=CC2=O)c1 | 41.1 kMESF (inactive)
38 | COc1cc(N2C(=O)C=CC2=O)c(OC)cc1Cl | 33.8 kMESF (inactive)
39 | Cc1ccccc1OCC(=O)NNC(=S)NC(=O)c1ccco1 | 43.5 kMESF (inactive)
40 | CC1=NOC(=O)/C1=C\c1ccc(-c2cc(Cl)ccc2Cl)o1 | 42.3 kMESF (inactive)
41 | COc1cc(/C=C/c2ccc3c(Br)cc(Br)c(O)c3n2)ccc1O | 27.7 kMESF (inactive)
42 | COc1ccc([C@]2(C(C)C)ON(c3ccccc3C(F)(F)F)C2=O)cc1 | 38.8 kMESF (inactive)
43 | CC1=CC(=O)C(C(C)C)=C/C1=N/OS(=O)(=O)c1ccccc1 | 36.5 kMESF (inactive)
44 | CCN1/C(=C/C=C/c2sc3ccccc3[n+]2CC)Sc2ccccc21 | 70 kMESF (inactive)
